Entries after “also recorded” stand apart in the source; their conditions may differ. Read-outs that look alike come from different tables or passages of the source.
Tests used:
[1] = test system: NO production in IL-1β-treated rat hepatocytes; experiment: NO production (nitrite, Griess method) in IL-1β-treated primary-cultured rat hepatocytes; format: cell-based; conditions: for IC50: Rattus norvegicus, Hepatocyte
Description: (§1) After acclimatization, the Wistar rats were euthanized by the intraperitoneal administration of an anesthetic combination of medetomidine hydrochloride, midazolam, and butorphanol tartrate. Rat livers were used to prepare hepatocytes as previously described. In brief, the liver was perfused with collagenase. The cells were resuspended in Williams’ E (WE) medium supplemented with 10% newborn calf serum, 10 nM dexamethasone, and 10 nM human insulin and seeded at 1.2 ×10^6 cells per 35 mm diameter dish. After the medium was replaced with serum-free WE medium, the cells were incubated overnight. The next day, the medium was replaced with WE medium containing 1 nM recombinant rat IL-1β [54] and/or a fraction or compound. The hepatocytes were further incubated at 37 °C for 4 h before RNA extraction or for 8 h before measuring the NO levels and performing a Western blot analysis of the cell lysates.
(§2) After 8 h of incubation with 1 nM IL-1β and/or a fraction or compound, nitrite (a stable metabolite of NO) was measured in triplicate using the Griess method. The NO concentration in the medium alone was set at 0%, whereas the concentration in the medium including IL-1β alone was set at 100%. […] Cytotoxicity was monitored by estimating the LDH activity in the medium using LDH Cytotoxicity Detection Kits (Takara Bio Inc., Kusatsu, Japan). The Griess reagent was added to the medium and incubated at 20–23 °C for 5 min, and the absorbance at 540 nm was measured to determine the decrease in nitrite. The LDH activity of the whole-cell extract was assumed to be 100%, whereas the LDH activity of the medium alone was assumed to have no cytotoxicity (i.e., less than 5% of the LDH activity of the whole-cell extract).

[2] = test system: primary-cultured rat hepatocytes; experiment: LDH activity in the hepatocyte medium (cytotoxicity); format: cell-based; conditions: for Cytotoxicity / LDH activity of the medium: hepatocytes, 8 h incubation; for LDH activity in the medium (cytotoxicity): at the concentrations of the NO assay, 8 h
Description: as §2

iNOS mRNA = experiment: RT-qPCR of iNOS mRNA in IL-1β-treated hepatocytes; format: cell-based, rat; conditions: with IL-1β; normalized to Ef1a mRNA; versus IL-1β alone
Description: as §1
(§3) Hepatocytes were lysed in Sepasol I Super G solution (Nacalai Tesque, Inc.) to extract total RNA, which was purified using an RNAqueous Kit and a TURBO DNA-free Kit (Applied Biosystems, Austin, TX, USA). The resulting RNA was converted to cDNA, which was amplified by PCR in triplicate with primers, SYBR Green I, and the Thermal Cycler Dice Real-Time System (Takara Bio Inc.). Ct values were calculated by the ΔΔCt method and then normalized to elongation factor 1α (Ef1a) mRNA [18, 54]. The mRNA levels normalized to the total RNA from the livers of the […] were set at 100%.

Tnf mRNA = experiment: RT-qPCR of Tnf mRNA in IL-1β-treated hepatocytes; format: cell-based, rat; conditions: with IL-1β; normalized to Ef1a mRNA; versus IL-1β alone
Description: as §1, §3

Il1r1 mRNA [3] = experiment: RT-qPCR of Il1r1 mRNA in IL-1β-treated hepatocytes; format: cell-based, rat; conditions: with IL-1β; normalized to Ef1a mRNA; versus IL-1β alone
Description: as §1
(§4) Hepatocytes were lysed in Sepasol I Super G solution (Nacalai Tesque, Inc.) to extract total RNA, which was purified using an RNAqueous Kit and a TURBO DNA-free Kit (Applied Biosystems, Austin, TX, USA). The resulting RNA was converted to cDNA, which was amplified by PCR in triplicate with primers, SYBR Green I, and the Thermal Cycler Dice Real-Time System (Takara Bio Inc.). Ct values were calculated by the ΔΔCt method and then normalized to elongation factor 1α (Ef1a) mRNA [18, 54]. […]

[4] = test system: NO production in IL-1β-treated rat hepatocytes; conditions: cited from earlier work
lymphotoxin β (Ltb) mRNA = experiment: RT-qPCR of Ltb mRNA in IL-1β-treated hepatocytes; format: cell-based, rat; conditions: with IL-1β, 4 h; normalized to Ef1a mRNA
Description: as §1, §4

iNOS protein = experiment: Immunoblot of iNOS protein in IL-1β-treated hepatocytes; format: cell-based, rat; conditions: with IL-1β, 8 h; β-tubulin control
Description: as §1
Hepatocyte lysates were prepared, resolved on a 10% sodium dodecyl sulfate–polyacrylamide gel, and transferred onto a membrane, as previously described. […] The protein of interest was visualized by ECL Western blotting Detection Reagents (Cytiva, Tokyo, Japan) and detected using an Amersham Imager 600 (Cytiva).

[5] = test system: iNOS antisense transcript (iNOS-AS); experiment: RT-qPCR of iNOS antisense transcript in IL-1β-treated hepatocytes; format: cell-based, rat; conditions: with IL-1β; RNA 3 h after addition
Description: as §1, with “The hepatocytes were further incubated at 37 °C for 4 h before RNA extraction or for 8 h before measuring the NO levels and performing a Western blot analysis of the cell lysates.” left out
as §3

[6] = test system: rat liver injuries caused by ischemia–reperfusion and partial hepatectomy; design: method as in PMID 38727775; conditions: cited from earlier work
[7] = test system: iNOS antisense transcript (iNOS-AS); design: method as in PMID 28681120, doi:10.7243/2050-0874-1-2, PMID 27774888; conditions: cited from earlier work
Il1r1 mRNA [8] = conditions: cited from earlier work
[9] = test system: LPS-treated RAW264.7 cells; design: method as in PMID 38339007; conditions: read-out: IC50 for NO production; cited from earlier work
[10] = 1 nM IL-1β, 8 h, means ± SDs, at least three experiments, read-out: IC50 (μM) for NO production in IL-1β-stimulated hepatocytes
[11] = constituents of Atractylodes chinensis rhizomes
[12] = means ± SDs, read-out: IC50 (μM) for NO production in IL-1β-stimulated hepatocytes

COc1cc(C2OCC3C(c4ccc(OC)c(OC)c4)OCC23)ccc1O (single isomer, unassigned; (+)) [(+)-Phillygenin, (+)-phillygenin]
IC50 [1, 10]: 193 ± 47.6 µM
Cytotoxicity / LDH activity of the medium [2]: background LDH activity at concentrations up to 300 μM; also recorded: without showing cytotoxicity
iNOS mRNA level (iNOS mRNA): decreased
Tnf mRNA level (Tnf mRNA): decreased
Il1r1 mRNA level (Il1r1 mRNA [3]): decreased

CC1=CCC[C@H](C)[C@@]12CC[C@@H](C(C)(C)O)C2 [(+)-hinesol]
IC50 for inhibition of NO production in hepatocytes [4, 11]: could not be calculated

C=C[C@H](/C=C\c1ccc(O)cc1)c1ccc(O)cc1 [(−)-Nyasol, (−)-nyasol]
IC50 [1, 10]: 18.3 ± 2.99 µM
LDH activity in the medium (cytotoxicity) [2]: < 5 % of the activity of the whole-cell extract
iNOS mRNA level (iNOS mRNA): significantly decreased
Tnf mRNA level (Tnf mRNA): significantly reduced
Ltb mRNA level (lymphotoxin β (Ltb) mRNA): significantly reduced

O=c1cc(-c2ccccc2)oc2cc(O)c(O)c(O)c12 [Baicalein, baicalein]
IC50 [1, 10]: 16.8 ± 7.93 µM
LDH activity in the medium (cytotoxicity) [2]: < 5 % of the activity of the whole-cell extract
iNOS mRNA level (iNOS mRNA): reduced
iNOS protein level (iNOS protein): reduced
iNOS-AS level [5]: inhibited iNOS-AS in a concentration-dependent manner
Liver injury [6]: attenuated

O=C(O)[C@H]1O[C@@H](Oc2cc3oc(-c4ccccc4)cc(=O)c3c(O)c2O)[C@H](O)[C@@H](O)[C@@H]1O [Baicalin]
IC50 relative to that of baicalein ([1]; IL-1β-treated hepatocytes, greater than baicalein): 3.3 fold
IC50 ([1]; authors' unpublished data (A.F., K.I., M.N.), read-out: IC50 for NO production in IL-1β-treated hepatocytes): 55 µM

COc1ccc2cc3[n+](cc2c1OC)CCc1cc2c(cc1-3)OCO2 [Berberine]
IC50 [4, 12]: 12 ± 3.4 µM

O=C(/C=C/c1ccc(O)c(O)c1)O[C@@H]1C[C@](O)(C(=O)O)C[C@@H](O)[C@H]1O [Chlorogenic acid]
IC50 [4, 12]: 652 ± 114 µM
iNOS-AS level [7]: reducing iNOS-AS

COC(=O)C1=CO[C@@H](O)[C@@H]2C(CO)=CC[C@H]12 [Genipin, genipin]
IC50 [1, 10]: 4.4 ± 0.85 µM
iNOS-AS level [7]: reducing iNOS-AS

O=c1cc(-c2ccc(Oc3ccc(-c4cc(=O)c5c(O)cc(O)cc5o4)cc3O)cc2)oc2cc(O)cc(O)c12 [Loniflavone, loniflavone]
IC50 [1, 10]: 1.64 ± 0.17 µM
Cytotoxicity / LDH activity of the medium [2]: Cytotoxicity was not observed
iNOS mRNA level (iNOS mRNA): decreased
Tnf mRNA level (Tnf mRNA): decreased
Il1r1 mRNA level (Il1r1 mRNA [3]): significantly decreased

CC1(C)OC(=O)C=C[C@]2(C)[C@H]3CC[C@@]4(C)[C@H](c5ccoc5)OC(=O)[C@H]5O[C@]54[C@]3(C)C(=O)C[C@@H]12 [Obakunone]
IC50 [4, 12]: 2.6 ± 1.1 µM
iNOS-AS level [7]: reducing iNOS-AS

COc1cc(O)c2c(c1)O[C@H](c1ccc(O)cc1)CC2=O [Sakuranetin, (S)-(–)-4′,5-dihydroxy-7-methoxyflavanone]
Il1r1 gene expression (Il1r1 mRNA [8]): decreases

CC(=O)Oc1ccccc1C(=O)O [aspirin]
Il1r1 gene expression (Il1r1 mRNA [8]; rat hepatocytes): suppress

C/C=C/C#CC#C/C=C/c1ccco1 [atractylodin]
IC50 ([4]; constituents of Atractylodes chinensis rhizomes, read-out: IC50 for inhibition of NO production in hepatocytes): 8.25 µM

C=C(C)[C@@H]1CC[C@]2(C(=O)O)CC[C@]3(C)[C@H](CC[C@@H]4[C@@]5(C)CC[C@H](O)C(C)(C)[C@@H]5CC[C@]43C)[C@@H]12 [betulinic acid, reference compound]
Cytotoxicity / LDH activity of the medium [2]: increased LDH activity in a concentration-dependent manner

COC(=O)C1=CO[C@@H](O[C@@H]2O[C@H](CO)[C@@H](O)[C@H](O)[C@H]2O)[C@@H]2C(CO)=CC[C@H]12 [geniposide]
Effect on IL-1β-induced NO production ([1]; IL-1β-treated hepatocytes): did not decrease NO production
Inhibition of NO production ([1]; up to a final concentration of 800 μM): did not inhibit NO production
IC50 [9]: 136 µM

CC(C(=O)O)c1ccc(CC2CCCC2=O)cc1 (centres unmarked) [loxoprofen]
Il1r1 gene expression (Il1r1 mRNA [8]; rat hepatocytes): suppress

CC1(C)CC[C@]2(C(=O)O)CC[C@]3(C)C(=CC[C@@H]4[C@@]5(C)CC[C@H](O)C(C)(C)[C@@H]5CC[C@]43C)[C@@H]2C1 [oleanolic acid, reference compound]
Cytotoxicity / LDH activity of the medium [2]: increased LDH activity in a concentration-dependent manner

C=C1CCC[C@]2(C)CC[C@@H](C(C)(C)O)C[C@@H]12 [β-eudesmol]
IC50 for inhibition of NO production in hepatocytes [4, 11]: could not be calculated

Reference: paper PMC11768083, “Crude Drugs for Clearing Heat Contain Compounds Exhibiting Anti-Inflammatory Effects in Interleukin-1β-Treated Rat Hepatocytes” (Molecules, 2025)
